Source: patent publication US20210346328A1, “COMPOSITIONS AND METHODS FOR TREATING METABOLIC DISORDERS” (The Johns Hopkins University, priority 2018, published 2021)

Experiments:
DRG neurons = assay: Calcium imaging of isolated DRG neurons; conditions: DRG neurons pre-incubated with 10 μM PGE2 for 5 min, relative to vehicle-treated neurons
CREB signaling in VMH = assay: CREB phosphorylation in hypothalamus (VMH) after injection; type: in vivo, mouse
Method: FIG. 28. (A) Western blot analysis of HTR2C and p-CREB in hypothalamus tissue from 12-week-old mice after PGE2 or vehicle injection at different periods. […] DAPI stains nuclei blue. Scale bar, 50 μm.
The femurs were collected and fixed in 4% paraformaldehyde overnight and decalcified by using 10% EDTA (pH, 7.4) (Amresco, 0105) for 21 days. The samples were then dehydrated with 30% sucrose for 24 h and embedded in paraffin or optimal cutting temperature compound (Sakura Finetek). 4-μm-thick coronal-oriented sections of the femur were prepared for hematoxylin and eosin staining. The femurs were fixed for 4 h with 4% paraformaldehyde at 4° C. and then decalcified at 4° C. using 0.5M EDTA (pH, 7.4) for 24 h with constant shaking. The samples were dehydrated in 20% sucrose and 2% polyvinylpyrrolidone (PVP) solution for 24 h and embedded in 8% gelatin (Sigma-Aldrich, G1890) in the presence of 20% sucrose and 2% PVP. Forty-μm-thick coronal-oriented sections of the femurs were obtained.

[1] = molecular target: EP4 in the sensory nerves (Mus musculus, UniProt P32240); assay: PGE2-induced bone formation, trichrome and calcein double labeling; type: in vivo; conditions: wild-type mice; 3 mg per kg per day PGE2 for 3 consecutive days
Method: (§1) FIG. 9. […] DAPI stains nuclei blue. […] Calcein was injected 5 days and 1 day before sacrifice. Representative images of calcein double labeling of femoral trabecular bone with quantification of mineral apposition rate (MAR) and bone formation rate (BFR). Scale bar, 20 μm. […] (Student t-test, except j with ANOVA)
(§2) As EP4 expression is also known to express in osteoblasts, osteoblastic cell-specific knockout EP4 mice were generated by crossing […] mice with osteocalcin-cre (OC-cre) mice (FIG. 12A).
(§3) A double-labeling procedure was performed to measure dynamic bone formation. Briefly, 0.1% calcein (Sigma-Aldrich, C0875) was injected in phosphate-buffered saline at a concentration of 10mg per kg into the mice subcutaneously 7 days and 1 day before sacrifice. The double-labeling images of undecalcified bone slices were captured using a fluorescence microscope. Trabecular bone formation in four randomly selected visual fields was analyzed in the distal metaphyseal area of the femur.

[2] = system: EP4 in the sensory nerves; assay: as above; type: in vivo, mouse; conditions: EP4Avil−/− mice; 3 mg per kg per day PGE2 for 3 consecutive days
Method: as §1, §2, §3

[3] = system: sensory nerves of iDTRAvil mice; conditions: mouse, in vivo
15-PGDH [4] = molecular target: T1, 15-PGDH (Mus musculus, UniProt Q8VCC1); assay: Bone regeneration after femoral bone marrow ablation; type: in vivo
T1 sequence (Q8VCC1 1-269): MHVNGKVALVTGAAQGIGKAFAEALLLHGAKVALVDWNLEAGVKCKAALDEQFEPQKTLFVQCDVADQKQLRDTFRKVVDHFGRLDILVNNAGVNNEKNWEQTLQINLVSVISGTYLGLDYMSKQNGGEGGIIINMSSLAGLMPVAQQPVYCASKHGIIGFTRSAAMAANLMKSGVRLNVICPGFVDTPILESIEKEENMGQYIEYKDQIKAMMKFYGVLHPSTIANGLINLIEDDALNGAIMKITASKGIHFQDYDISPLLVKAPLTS
Excerpt: FIG. 31. […] Scale bar: 1 mm. Selected areas for the measurements of bone volume (BV)/tissue volume (TV) were indicated with a yellow square. b Representative images of hematoxylin-eosin staining, double immunofluorescence analysis of CD31^+ Emcn^+ cells, and immunofluorescence analysis of Leptin receptor (LepR)^+ cells in the regeneration area. Scale bar, 100 μm. c Graphic illustration of this study. When bone density decreases by osteoclast bone resorption, PGE2 secretion by osteoblastic cells increases at bone remodeling sites. PGE2 activates EP4 receptor at sensory nerve to tune down sympathetic tones for osteoblast differentiation at the bone remodeling microenvironment. The sensory nerve controlling process is likely a temporal-spatial precision action. […] (ANOVA)
PGE2 has been reported recently to potentiate regeneration of multiple tissues (see, Zhang, Y. et al. Science 348, aaa2340, doi:10.1126/science.aaa2340 (2015)). To investigate whether PGE2 induces tissue regeneration through sensory nerves, experiments were conducted that assessed whether PGE2 induces bone regeneration. […] However, the regeneration of trabecular bone by SW033291 was obstructed in EP4Avil^−/− mice (FIG. 31A, B). […] Thus, PGE2 stimulates bone regeneration through sensory nerves.
The femurs were harvested from mice, and the soft tissue around the bone was removed, followed by fixation overnight using 4% paraformaldehyde. μCT analyses were performed by using a high-resolution μCT scanner (SkyScan, 1174). The voltage of the scanning procedure was 65 kv with a 153-μA current. The resolution was set to 8.7 μm per pixel. Reconstruction software (NRecon, v1.6, SkyScan), data analysis software (CTAn, v1.9, SkyScan), and 3D model visualization software (CTVol, v2.0, SkyScan) were used to analyze the diaphyseal cortical bone and the metaphyseal trabecular bone parameters of the femurs. Experiments were conducted that created cross-sectional images of the femur to perform 2D analyses of the cortical bone and 3D analyses of the trabecular bone. The region of interest (ROI) of the trabecular bone was drawn beginning from 5% of the femur length proximal to the distal metaphyseal growth plate and extending proximally for another 5% of the total femur length. The trabecular bone volume fraction (BV/TV), trabecular thickness (Tb. Th), trabecular number (Tb. N), and trabecular separation (Tb. Sp) were collected from the 3D analyses data and used to represent the trabecular bone parameters. The cortical bone ROI was drawn beginning from 20% of femur length proximal to distal metaphyseal growth plate and extending proximally to another 10% of the total femur length. […]

15-PGDH [5] = molecular target: T1, 15-PGDH; assay: Liver regeneration after partial hepatectomy; type: in vivo; conditions: TrkAAvil−/− mice treated with SW033291 relative to WT littermates
Excerpt: FIG. 32. (A) Double-immunofluorescence images of liver tissue sections from TrkA^wt and TrkAAvil^−/− mice with vehicle or SW033291 treatment using antibodies against and Ki67 (red) and CGRP (green). DAPI stains nuclei blue. Percentages of the Ki67+cells are shown in the right panel. Scale bar, 100 μm.(B) BrdU staining images of liver tissue sections from TrkA^wt and TrkAAvil^−/− mice with vehicle or SW033291 treatment. Scale bar, […]. Percentages of the BrdU+cells are shown in the right panel. […] (ANOVA).
To further investigate whether PGE2 induces regeneration by sensory nerves of tissues other than bone, experiments were conducted that performed partial hepatectomy in TrkAAvil^−/− mice and their WT littermates treated with SW033291 or vehicle.
Partial hepatectomy was used for the liver regeneration model. 10- to 12-week-old […] male mice were anesthetized, as described above. A partial (two-thirds) hepatectomy was performed by resecting the median and left lateral hepatic lobes^54. The remnant livers were harvested after mice sacrifice. SW033291 was dissolved in a vehicle of 10% ethanol, 5% Cremophor EL, and 85% dextrose 5% in water.

Chain of EP4 in the sensory nerves (Mus musculus, UniProt P32240) (P32240 whole entry): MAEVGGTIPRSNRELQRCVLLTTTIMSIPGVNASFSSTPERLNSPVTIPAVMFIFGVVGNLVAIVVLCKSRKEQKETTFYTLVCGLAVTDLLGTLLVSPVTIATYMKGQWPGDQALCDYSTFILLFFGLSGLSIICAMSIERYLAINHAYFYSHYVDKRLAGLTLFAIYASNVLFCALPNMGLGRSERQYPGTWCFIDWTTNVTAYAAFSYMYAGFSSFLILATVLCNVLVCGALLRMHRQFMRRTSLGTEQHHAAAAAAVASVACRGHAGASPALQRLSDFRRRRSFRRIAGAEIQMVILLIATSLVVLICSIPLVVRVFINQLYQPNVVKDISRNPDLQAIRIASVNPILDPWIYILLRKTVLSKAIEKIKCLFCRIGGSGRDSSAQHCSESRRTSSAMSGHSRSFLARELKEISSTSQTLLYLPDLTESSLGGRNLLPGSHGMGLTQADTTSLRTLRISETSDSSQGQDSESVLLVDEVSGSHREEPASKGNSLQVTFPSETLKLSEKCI

Compound: CCCCC[C@H](O)/C=C/[C@H]1[C@H](O)CC(=O)[C@@H]1C/C=C\CCCC(=O)O [PGE2, prostaglandin E2]
- activated (illuminated) DRG neurons, calcium imaging (DRG neurons): more illuminated DRG neurons
- phosphorylation of CREB in hypothalamus, Western blot time course (CREB signaling in VMH; 12-week-old mice after PGE2 injection): increased gradually
- PGE2-induced CREB phosphorylation in VMH, immunostaining (CREB signaling in VMH; EP4Avil−/− mice, 3 mg per kg PGE2, 6 h): abolished
- CREB phosphorylation in VMH, immunostaining (CREB signaling in VMH; WT (EP4wt) mice, 3 mg per kg PGE2, 6 h after injection): increased significantly
- time of peak phosphorylation of CREB in hypothalamus (CREB signaling in VMH; Western blot, after PGE2 injection): 6 h
- bone formation (trichrome, calcein double labeling: MAR, BFR) [1]: significant bone formation
- bone formation (trichrome, calcein double labeling: MAR, BFR) [2]: abolished

Compound: diphtheria toxin [DTX]
- Sensory denervation (CGRP+ sensory nerves in femur) [3]: effectively induced
- amount of osteoid [3]: significantly decreased
- bone formation (calcein double-labeling) [3]: reduced
- bone loss (μCT, femur) [3]: Significant bone loss
- bone mass in the vertebrae [3]: decreased
- mineral apposition rate (calcein double-labeling) [3]: reduced
- motor neural activity (pole tests and grip strength tests) [3]: No motor neural activity was influenced
- number of osteoblasts [3]: significantly decreased
- number of osteoclasts [3]: unchanged
- sensory innervations in the vertebrae [3]: decreased
- serum CTX level [3]: unchanged
- serum osteocalcin level [3]: significantly decreased

Compound: O=C(O)CCC/C=C\C[C@H]1C(=O)C[C@@H](O)[C@@H]1/C=C/[C@@H](O)CCc1ccccc1 [EP1/3 agonist]
- phosphorylation of CREB (pCREB level) in VMH (CREB signaling in VMH; C57BL/6 mice, agonist 200 ug per kg, 6 hours, relative to vehicle-treated mice): did not increase

Compound: CCCC[S+]([O-])c1sc2nc(-c3cccs3)cc(-c3ccccc3)c2c1N (stereo not shown) [SW033291]
- type H vessels in the regeneration area (15-PGDH [4]; EP4Avil−/− mice with or without injection of SW033291): almost undetectable
- regeneration of trabecular bone (15-PGDH [4]; EP4Avil−/− mice, 10 mg per kg per day SW033291): obstructed
- type H vessel (CD31hi Endomucinhi) growth in the regeneration area (15-PGDH [4]; EP4wt mice treated with SW033291): significantly increased
- trabecular bone regeneration (μCT, HE staining) (15-PGDH [4]; EP4wt mice, 10 mg per kg per day SW033291, relative to vehicle-treated controls): boosted trabecular bone regeneration significantly
- liver regeneration rate (BrdU and Ki67 staining) (15-PGDH [5]): decreased significantly
